By inhibition is commonly meant the percentage by which the read-out fell short of the control. In general, Km refers to the substrate concentration at which the rate is half of its maximum.

Common to all, as to format: cell-based
Assay [1] concerns the target T1, LAT1 (System L1 catalytic subunit) (Mus musculus, UniProt Q9Z127).
T1 construct: gene Slc7a5; endogenous System L1 in 3T3-L1 adipocytes; with SLC3A2 (4F2hc/CD98)
Description: inhibition of […] [3H]phenylalanine uptake at […]. Particulars: read-out: % inhibition at 10 mM.

Assay [2] has as its target T1, LAT1 (System L1 catalytic subunit). Description: inhibition of [3H]phenylalanine uptake ([…] at […]) and of leucine trans stimulated efflux. The note with it: read-out: % inhibition at 10 μM.
Assay [3] shares this target. Description: trans stimulation of [3H]phenylalanine efflux; inhibition of phenylalanine and T3 uptake.
Assay [4] has the same target. Description: saturable [3H]phenylalanine uptake (Km) in 3T3-L1 cells.

Each structure is given as a SMILES string.

T1 sequence (Q9Z127 whole entry): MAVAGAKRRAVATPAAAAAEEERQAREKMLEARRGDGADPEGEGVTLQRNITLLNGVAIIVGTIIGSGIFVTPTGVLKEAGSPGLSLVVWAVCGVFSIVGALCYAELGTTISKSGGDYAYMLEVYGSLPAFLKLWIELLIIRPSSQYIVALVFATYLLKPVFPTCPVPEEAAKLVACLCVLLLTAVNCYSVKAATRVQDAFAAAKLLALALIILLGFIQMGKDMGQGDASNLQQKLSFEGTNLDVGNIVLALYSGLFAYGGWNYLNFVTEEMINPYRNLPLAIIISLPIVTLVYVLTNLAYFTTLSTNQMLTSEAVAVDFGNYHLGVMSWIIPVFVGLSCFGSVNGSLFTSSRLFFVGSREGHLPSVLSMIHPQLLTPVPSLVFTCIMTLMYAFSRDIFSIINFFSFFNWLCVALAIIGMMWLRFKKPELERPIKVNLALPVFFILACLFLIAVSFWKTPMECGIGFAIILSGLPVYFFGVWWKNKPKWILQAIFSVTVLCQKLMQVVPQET
T1 sequence (P10852 whole entry partner): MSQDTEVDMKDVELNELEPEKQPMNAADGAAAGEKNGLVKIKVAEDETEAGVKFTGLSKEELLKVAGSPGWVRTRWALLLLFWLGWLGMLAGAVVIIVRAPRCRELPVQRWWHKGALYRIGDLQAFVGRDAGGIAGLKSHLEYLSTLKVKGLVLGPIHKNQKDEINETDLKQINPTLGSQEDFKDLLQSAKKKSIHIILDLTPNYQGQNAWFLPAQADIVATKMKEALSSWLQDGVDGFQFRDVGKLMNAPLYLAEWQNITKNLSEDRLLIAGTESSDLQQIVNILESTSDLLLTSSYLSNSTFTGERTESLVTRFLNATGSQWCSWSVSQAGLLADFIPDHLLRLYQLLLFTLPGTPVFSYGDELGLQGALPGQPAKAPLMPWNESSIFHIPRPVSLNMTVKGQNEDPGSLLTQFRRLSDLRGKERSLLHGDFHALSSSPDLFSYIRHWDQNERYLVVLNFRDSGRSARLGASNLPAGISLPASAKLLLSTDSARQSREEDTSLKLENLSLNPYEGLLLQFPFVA

In the case of `NC1(C(=O)O)CC2CCC1C2` (stereo not shown) [BCH, 2-aminobicyclo-(2,2,1)-heptane-2-carboxylic acid], the inhibition at 10000 µM in assay [1] is more than 95%.

For `N[C@@H](Cc1ccc(Oc2cc(I)c(O)c(I)c2)c(I)c1)C(=O)O` [rT3, Reverse L-triiodothyronine], the inhibition at 10 µM in assay [2] came out at 57%.

Take `CC(C)C[C@H](N)C(=O)O` [leucine]: the “trans stimulation of [3H]phenylalanine efflux; inhibition of phenylalanine and T” value in assay [3] is “Efflux of pre-loaded L-[^3H]phenylalanine from 3T3-L1 adipocytes was trans stimulated in a concentration-dependent manner by external leucine”.

In the case of `N[C@@H](Cc1ccccc1)C(=O)O` [L-phenylalanine], the Km in assay [4] turned out to be 31 µM.
